# Assay results reported in patent US6204282A, “Benzimidazole compounds that are vitronectin receptor antagonists” (Schering Corporation, priority 1999, dated 2001).
# pIC50: −log10 of the molar value.
# Target: T1, αvβ3 receptor (Homo sapiens, UniProt P05106+P06756)
# T1 construct: αvβ3 receptor (purified from human placenta); from tissue; host or cells: human placenta
# Assay: competition radioligand binding assay, 125I-echistatin to purified αvβ3 receptor
# Settings: inhibition of specific binding of 125I-echistatin (0.05 nM), 3 hour incubation at room temperature
row,SMILES,pIC50
1,O=C(N[C@@H](CNC(=O)c1cccc(CNCc2nc3ccccc3[nH]2)c1)C(=O)O)OCc1ccccc1 [Example 5-6],~6.30
2,COCC(=O)N(Cc1ccc(C(=O)NC[C@H](NC(=O)OCc2ccccc2)C(=O)O)cc1)Cc1nc2ccccc2[nH]1 [Example 5-5],9.38
3,COCC(=O)N(Cc1cccc(C(=O)NC[C@H](NC(=O)OCc2ccccc2)C(=O)O)c1)Cc1nc2ccccc2[nH]1 [Example 5-10],~6.30
4,CN(C)C(=O)N(Cc1ccc(C(=O)NC[C@H](NC(=O)OCc2ccccc2)C(=O)O)cc1)Cc1nc2ccccc2[nH]1 [Example 5-41],8.55
5,CC(=O)N(Cc1cccc(C(=O)NC[C@H](NC(=O)OCc2ccccc2)C(=O)O)c1)Cc1nc2ccccc2[nH]1 [Example 5-8],~6.30
6,CC(=O)N(Cc1ccc(C(=O)NC[C@H](NC(=O)OCc2ccccc2)C(=O)O)cc1)Cc1nc2ccccc2[nH]1 [Example 5-3],8.72
7,CC(C)NC(=O)N(Cc1ccc(C(=O)NC[C@H](NC(=O)OCc2ccccc2)C(=O)O)cc1)Cc1nc2ccccc2[nH]1 [Example 5-30],8.64
8,O=C(N[C@@H](CNC(=O)c1cccc(CN(Cc2nc3ccccc3[nH]2)C(=O)c2ccc(Cl)cc2)c1)C(=O)O)OCc1ccccc1 [Example 5-7],~6.30
9,O=C(N[C@@H](CNC(=O)c1ccc(CN(Cc2nc3ccccc3[nH]2)C(=O)c2ccc(Cl)cc2)cc1)C(=O)O)OCc1ccccc1 [Example 5-2],8.19
10,CCCC(=O)N(Cc1ccc(C(=O)NC[C@H](NC(=O)OCc2ccccc2)C(=O)O)cc1)Cc1nc2ccccc2[nH]1 [Example 5-11],8.47
11,O=C(N[C@@H](CNC(=O)c1ccc(CN(Cc2nc3ccccc3[nH]2)C(=O)c2ccc3c(c2)OCO3)cc1)C(=O)O)OCc1ccccc1 [Example 5-4],8.54
12,O=C(N[C@@H](CNC(=O)c1ccc(CNCc2nc3ccccc3[nH]2)cc1)C(=O)O)OCc1ccccc1 [Example 5-1],8.27
13,O=C(N[C@@H](CNC(=O)c1cccc(CN(Cc2nc3ccccc3[nH]2)C(=O)c2ccc3c(c2)OCO3)c1)C(=O)O)OCc1ccccc1 [Example 5-9],~6.30

# Target: αllbβ3 receptor (Homo sapiens, UniProt P05106+P08514)
# Assay: similar competitive assay with purified αllbβ3 receptor and 125I-echistatin (specificity index versus αvβ3)
# Format: binding
# Settings: IC50 αllbβ3 / IC50 αvβ3
# From the text: The specificity index, which is a measure of the relative binding affinity for αvβ3 versus αllbβ3, may be determined by dividing the IC50 value for αllbβ3by the IC50 value for αvβ3.
row,SMILES,SPECIFICITY αIIb β3/αvβ3 (specificity index)
1,CN(C)C(=O)N(Cc1ccc(C(=O)NC[C@H](NC(=O)OCc2ccccc2)C(=O)O)cc1)Cc1nc2ccccc2[nH]1 [Example 5-41],19
2,CC(C)NC(=O)N(Cc1ccc(C(=O)NC[C@H](NC(=O)OCc2ccccc2)C(=O)O)cc1)Cc1nc2ccccc2[nH]1 [Example 5-30],296
3,CCCC(=O)N(Cc1ccc(C(=O)NC[C@H](NC(=O)OCc2ccccc2)C(=O)O)cc1)Cc1nc2ccccc2[nH]1 [Example 5-11],70
4,CC(c1nc2ccccc2[nH]1)N(Cc1ccc(C(=O)NC[C@H](NC(=O)OCc2ccccc2)C(=O)O)cc1)C(=O)CCC1CCCC1 (stereo partly drawn) [Example 5-79],19.0
5,O=C(N[C@@H](CNC(=O)c1ccc(CN(Cc2nc3ccccc3[nH]2)C(=O)NCc2ccccc2)cc1)C(=O)O)OCc1ccccc1 [Example 5-29],144
6,CCCCOC(=O)N[C@@H](CNC(=O)c1ccc(CN(Cc2nc3ccccc3[nH]2)C(=O)N[C@@H](C)C(=O)OCC)cc1)C(=O)O [Example 5-89],1094
7,CN(Cc1ccc(C(=O)NC[C@H](NC(=O)OCc2ccccc2)C(=O)O)cc1)Cc1nc2ccccc2[nH]1 [Example 5-33],128
8,CCNC(=O)N(Cc1ccc(C(=O)NC[C@H](NC(=O)OCc2ccccc2)C(=O)O)cc1)Cc1nc2ccccc2[nH]1 [Example 5-43],585
9,O=C(O)CC(NC(=O)c1ccc(CN(Cc2nc3ccccc3[nH]2)C(=O)CCc2ccccc2)cc1)c1ccccc1 (stereo not drawn) [Example 5-68],0.4
10,O=C(N[C@@H](CNC(=O)c1ccc(CN(Cc2nc3ccccc3[nH]2)C(=O)NC2CCCCC2)cc1)C(=O)O)OCc1ccccc1 [Example 5-28],1136
11,O=C(N[C@@H](CNC(=O)c1ccc(CN(Cc2nc3ccccc3[nH]2)C(=S)NCCc2ccccc2)cc1)C(=O)O)OCc1ccccc1 [Example 5-31],80
12,CN(C)CC(=O)N(Cc1ccc(C(=O)NC[C@H](NC(=O)OCc2ccccc2)C(=O)O)cc1)Cc1nc2ccccc2[nH]1 [Example 5-24],14
13,O=C(N[C@H](CNC(=O)c1ccc(CN(Cc2nc3ccccc3[nH]2)C(=O)CCc2ccccc2)cc1)C(=O)O)OCc1ccccc1 [Example 5-59],65
14,COCC(=O)N(Cc1ccc(C(=O)NC(CC(=O)O)c2ccccc2)cc1)Cc1nc2ccccc2[nH]1 (stereo not drawn) [Example 5-67],0.5
15,CC(NC(=O)N(Cc1ccc(C(=O)NC[C@H](NC(=O)OCc2ccccc2)C(=O)O)cc1)Cc1nc2ccccc2[nH]1)c1cccc2ccccc12 (stereo partly drawn) [Example 5-36],129
16,O=C(O)CC(NC(=O)c1ccc(CN(Cc2nc3ccccc3[nH]2)C(=O)CCC2CCCC2)cc1)c1ccccc1 (stereo not drawn) [Example 5-69],0.4
17,"CCCCOC(=O)N[C@@H](CNC(=O)c1ccc(CN(Cc2nc3ccccc3[nH]2)C(=O)NCC(=O)OCC)cc1)C(=O)O [Example 5-86, N^3-[4-[(benzimnidazol-2-yl)methyl][[(ethoxycarbonylmethyl)amino]-carbonyl]aminomethylbenzoyl]-N^2-(n-butoxycarbonyl)-L-2,3-diaminopropionic acid]",793
18,O=C(N[C@H](CNC(=O)c1ccc(CNCc2nc3ccccc3[nH]2)cc1)C(=O)O)OCc1ccccc1 [Example 5-57],1.43
19,CC(=O)N(CCc1nc2ccccc2[nH]1)Cc1ccc(C(=O)NCC(NC(=O)OCc2ccccc2)C(=O)O)cc1 (stereo not drawn) [Example 5-71],0.3

row,SMILES,SPECIFICITY αIIb β3/αvβ3 (specificity index)
1,O=C(N[C@@H](CNC(=O)c1ccc(CN(Cc2nc3ccccc3[nH]2)C(=O)NS(=O)(=O)c2ccc(Cl)cc2)cc1)C(=O)O)OCc1ccccc1 [Example 5-44],66.3
2,O=C(O)CC(NC(=O)c1ccc(CNCc2nc3ccccc3[nH]2)cc1)c1ccccc1 (stereo not drawn) [Example 5-65],0.4
3,CCCCOC(=O)N[C@@H](CNC(=O)c1ccc(CN(Cc2nc3ccccc3[nH]2)C(=O)N[C@@H](CCSC)C(=O)OCC)cc1)C(=O)O [Example 5-87],1569
4,O=C(NC(CNC(=O)c1ccc(CN(CCc2nc3ccccc3[nH]2)C(=O)CCc2ccccc2)cc1)C(=O)O)OCc1ccccc1 (stereo not drawn) [Example 5-73],0.7
5,CSCC(=O)N(Cc1ccc(C(=O)NC[C@H](NC(=O)OCc2ccccc2)C(=O)O)cc1)Cc1nc2ccccc2[nH]1 [Example 5-23],22
6,COc1ccc(OC(=O)N(Cc2ccc(C(=O)NC[C@H](NC(=O)OCc3ccccc3)C(=O)O)cc2)Cc2nc3ccccc3[nH]2)cc1 [Example 5-21],41
7,"O=C(O)CNC(=O)N(Cc1ccc(C(=O)NC[C@H](NC(=O)OCc2ccccc2)C(=O)O)cc1)Cc1nc2ccccc2[nH]1 [Example 5-96, N^3-[4-[(Benzimidazol-2-yl)methyl][[(carboxymethyl)amino]carbonyl]aminomethylbenzoyl]-N^2 -Cbz-L-2,3-diaminopropionic acid]",528
8,CC(c1nc2ccccc2[nH]1)N(Cc1ccc(C(=O)NC[C@H](NC(=O)OCc2ccccc2)C(=O)O)cc1)C(=O)CCc1ccccc1 (stereo partly drawn) [Example 5-78],33.9
9,CC(C)NC(=O)N(Cc1ccc(C(=O)NC[C@H](NC(=O)OCc2ccccc2)C(=O)O)cc1)Cc1nc2ccccc2n1C [Example 5-93],124
10,O=C(N[C@@H](CNC(=O)c1ccc(CN(Cc2nc3ccccc3[nH]2)C(=O)C2CC2c2ccccc2)cc1)C(=O)O)OCc1ccccc1 (stereo partly drawn) [Example 5-22],26
11,CCCCOC(=O)N[C@@H](CNC(=O)c1ccc(CN(Cc2nc3ccccc3[nH]2)C(=O)N[C@H](C(=O)OCC)C(C)C)cc1)C(=O)O [Example 5-90],1697
12,CCOCC(=O)N(Cc1ccc(C(=O)NC[C@H](NC(=O)OCc2ccccc2)C(=O)O)cc1)Cc1nc2ccccc2[nH]1 [Example 5-26],91
13,COCC(=O)N(Cc1ccc(C(=O)NC[C@H](NS(=O)(=O)c2ccccc2)C(=O)O)cc1)Cc1nc2ccccc2[nH]1 [Example 5-80],11
14,O=C(N[C@@H](CNC(=O)c1ccc(CN(Cc2nc3ccccc3[nH]2)C(=O)CCC2CCCC2)cc1)C(=O)O)OCc1ccccc1 [Example 5-14],117
15,CCCCOC(=O)N[C@@H](CNC(=O)c1ccc(CN(Cc2nc3ccccc3[nH]2)C(=O)Nc2ccccc2)cc1)C(=O)O [Example 5-83],1689
16,CC(NCc1ccc(C(=O)NC[C@H](NC(=O)OCc2ccccc2)C(=O)O)cc1)c1nc2ccccc2[nH]1 (stereo partly drawn) [Example 5-75],10.2
17,O=C(N[C@@H](CNC(=O)c1ccc(CN(Cc2nc3ccccc3[nH]2)C(=O)Nc2ccc(F)cc2)cc1)C(=O)O)OCc1ccccc1 [Example 5-49],504
18,O=C(NC[C@H](NS(=O)(=O)c1ccccc1)C(=O)O)c1ccc(CN(Cc2nc3ccccc3[nH]2)C(=O)NC2CCCCC2)cc1 [Example 5-81],8.0
19,CCOC(=O)[C@H](CCSC)NC(=O)N(Cc1ccc(C(=O)NC[C@H](NC(=O)OCc2ccccc2)C(=O)O)cc1)Cc1nc2ccccc2[nH]1 [Example 5-48],2028
